According to ChEMBL document CHEMBL4732189, “A facile synthesis of diaryl pyrroles led to the discovery of potent colchicine site antimitotic agents” (Eur J Med Chem, 2021):
pIC50: −log10 of the molar value.

Key:
[1] = system: A549; experiment: cells; details: Homo sapiens, A549, 72 h
Description: Antiproliferative activity against human A549 cells assessed as reduction in cell viability after 72 hrs by MTT assay

[2] = system: HT-29; experiment: cells; details: Homo sapiens, HT-29, 72 h
[3] = system: SEM cells; experiment: Antiproliferative activity against human SEM cells assessed as reduction in cell viability after 72 hrs by MTT assay; format: functional, cell-based
[4] = system: CCRF-CEM; experiment: Antiproliferative activity against human CCRF-CEM cells assessed as reduction in cell viability after 72 hrs by MTT assay; format: functional, cell-based
[5] = system: HeLa; experiment: cells; details: Homo sapiens, 72 h
Description: Antiproliferative activity against human HeLa cells assessed as reduction in cell viability after 72 hrs by MTT assay

[6] = system: HL-60; experiment: Antiproliferative activity against human HL-60 cells assessed as reduction in cell viability after 72 hrs by MTT assay; format: functional, cell-based; details: HL-60, 72 h
[7] = Inhibition of bovine brain tubulin polymerization incubated for 15 mins followed by GTP addition and measured after 20 mins by spectrophotometric method; format: tissue-based, Bos taurus
[8] = species on record: Bos taurus; experiment: Displacement of [3H]colchicine from bovine brain tubulin at 5 uM by DEAE-cellulose filter method relative to control; format: tissue-based

Row | SMILES | pIC50 [1] | pIC50 [2] | pIC50 [3] | pIC50 [4] | pIC50 [5] | pIC50 [6] | pIC50 [7] | inhibition [8]
1 | COc1ccc(-c2c[nH]cc2-c2cc(OC)c(OC)c(OC)c2)cc1Cl | 6.61 | 6.55 | 7.16 | 6.55 | 6.53 | 6.75 | – | –
2 | COc1ccc(-c2c[nH]cc2-c2cc(OC)c(OC)c(OC)c2)cc1 | 7.06 | 7.51 | 7.46 | 6.93 | 7.55 | 6.59 | – | –
3 | COc1cc(-c2c[nH]cc2-c2ccc(C)cc2)cc(OC)c1OC | 7.01 | 6.89 | 7.76 | 7.33 | 7.27 | 7.50 | 5.92 | 83%
4 | COc1ccc(-c2cccn2-c2cc(OC)c(OC)c(OC)c2)cc1 | < 5.00 | 5.67 | 6.82 | 5.60 | 5.72 | 6.33 | – | –
5 | COc1cc(-n2cccc2-c2ccc(C)c(C)c2)cc(OC)c1OC | < 5.00 | 5.11 | 6.12 | 5.49 | 5.48 | 5.40 | – | –
6 | CCCOc1ccc(-c2c[nH]cc2-c2cc(OC)c(OC)c(OC)c2)cc1 | 6.17 | 6.15 | 6.04 | 5.37 | 6.43 | 5.44 | – | –
7 | CCc1ccc(-n2cccc2-c2cc(OC)c(OC)c(OC)c2)cc1 | < 5.00 | 5.08 | 5.88 | 5.37 | < 5.00 | 5.44 | – | –
8 | CCOc1ccc(-c2cccn2-c2cc(OC)c(OC)c(OC)c2)cc1Cl | 5.08 | 6.14 | 7.00 | 5.53 | 6.46 | 6.41 | 5.89 | 68%
9 | COc1cc(-c2c[nH]cc2-c2ccc3ccccc3c2)cc(OC)c1OC | 6.64 | 6.59 | 7.49 | 7.06 | 6.86 | 7.27 | – | –
10 | COc1cc(-c2cccn2-c2cccc3ccccc23)cc(OC)c1OC | < 5.00 | < 5.00 | 5.15 | 5.06 | < 5.00 | < 5.00 | – | –
11 | CCc1ccc(-c2c[nH]cc2-c2cc(OC)c(OC)c(OC)c2)cc1 | 6.59 | 6.54 | 7.32 | 6.65 | 6.53 | 6.79 | – | –
12 | COc1cc(-c2cccn2-c2ccc(C)cc2)cc(OC)c1OC | < 5.00 | 5.28 | 6.85 | 5.62 | 5.48 | 6.20 | 5.62 | 55%
13 | CCSc1ccc(-c2cccn2-c2cc(OC)c(OC)c(OC)c2)cc1 | < 5.00 | 5.03 | 5.81 | 5.33 | 5.41 | 5.43 | – | –
14 | COc1cc(-c2c[nH]cc2-c2ccc(C(F)(F)F)cc2)cc(OC)c1OC | 6.39 | 6.06 | 6.46 | 5.87 | 6.35 | 6.03 | – | –
15 | COc1ccc(-c2cccn2-c2cc(OC)c(OC)c(OC)c2)cc1C | < 5.00 | < 5.00 | 6.00 | 5.60 | 5.01 | 5.41 | – | –
16 | CCc1ccc(-c2cccn2-c2cc(OC)c(OC)c(OC)c2)cc1 | < 5.00 | 5.26 | 6.51 | 5.52 | 5.00 | 5.95 | – | –
17 | COc1cccc(-n2cccc2-c2cc(OC)c(OC)c(OC)c2)c1 | < 5.00 | < 5.00 | 5.70 | 5.30 | < 5.00 | 5.51 | – | –

Row | SMILES | pIC50 [1] | pIC50 [2] | pIC50 [3] | pIC50 [4] | pIC50 [5] | pIC50 [6] | pIC50 [7] | inhibition [8]
18 | COc1cc(-n2cccc2-c2cc3ccccc3s2)cc(OC)c1OC | < 5.00 | 5.23 | 6.54 | 5.53 | 6.02 | 5.52 | – | –
19 | COCOc1ccc(-c2c[nH]cc2-c2cc(OC)c(OC)c(OC)c2)cc1 | 5.10 | < 5.00 | < 5.00 | < 5.00 | < 5.00 | < 5.00 | – | –
20 | COc1cc(-c2cccn2-c2ccc3ccccc3c2)cc(OC)c1OC | 5.26 | 6.08 | 6.72 | 5.85 | 6.37 | 6.40 | 5.80 | 70%
21 | COc1cc(-c2cccn2-c2ccc(C)c(C)c2)cc(OC)c1OC | < 5.00 | < 5.00 | 5.70 | 5.45 | < 5.00 | 5.40 | – | –
22 | COc1cc(-n2cccc2-c2ccc(SC)cc2)cc(OC)c1OC | < 5.00 | < 5.00 | 6.70 | 5.55 | < 5.00 | 6.09 | – | –
23 | COc1ccc(-c2cccn2-c2cc(OC)c(OC)c(OC)c2)cc1F | 5.05 | 5.39 | 6.70 | 5.77 | 5.21 | 6.43 | 5.59 | 64%
24 | CCCc1ccc(-c2cccn2-c2cc(OC)c(OC)c(OC)c2)cc1 | < 5.00 | < 5.00 | < 5.00 | 5.31 | < 5.00 | < 5.00 | – | –
25 | COc1cc(-c2c[nH]cc2-c2cc3ccccc3s2)cc(OC)c1OC | 6.64 | 6.42 | 7.43 | 6.81 | 7.37 | 7.45 | – | –
26 | COc1cc(-c2cccn2-c2ccc(N(C)C)cc2)cc(OC)c1OC | < 5.00 | 5.15 | 6.21 | 5.41 | 5.25 | 5.58 | – | –
27 | COc1cc(-n2cccc2-c2cc(C)c(OC)c(C)c2)cc(OC)c1OC | < 5.00 | < 5.00 | 5.10 | 5.04 | < 5.00 | < 5.00 | – | –
28 | COc1cc(-c2c[nH]cc2-c2ccc(OC(F)(F)F)cc2)cc(OC)c1OC | 5.37 | 5.26 | 5.32 | 5.20 | 5.28 | 5.23 | – | –
29 | COc1ccc(-c2c[nH]cc2-c2cc(OC)c(OC)c(OC)c2)cc1F | 6.69 | 7.32 | 8.28 | 7.28 | 7.48 | 7.47 | – | –
30 | COc1ccc(-c2cccn2-c2cc(OC)c(OC)c(OC)c2)cc1Cl | < 5.00 | < 5.00 | 6.26 | 5.54 | 5.01 | 5.49 | – | –
31 | COc1cc(-c2cccn2-c2cc(OC)c(OC)c(OC)c2)ccc1C | < 5.00 | < 5.00 | 5.64 | 5.55 | < 5.00 | 5.44 | – | –
32 | COc1ccc(/C=C\c2cc(OC)c(OC)c(OC)c2)cc1O [COMBRETASTATIN A4] | – | – | 8.30 | 8.70 | – | – | – | –
33 | CCSc1ccc(-c2c[nH]cc2-c2cc(OC)c(OC)c(OC)c2)cc1 | 6.47 | 6.20 | 6.32 | 5.51 | 6.41 | 5.58 | – | –
